# Measured values taken from EP0256125A1, “MEANS FOR PREVENTING MICROBIOLOGICAL OVERGROWING OF HARD SURFACE” (priority 1985, dated 1987).
# Legend:
# [1] = prior art statement; cited from earlier work
# [2] = Solubility in solvents (qualitative); settings: for Löslichkeit im Alkohol: Alkohol (Ethylalkohol)
# Geotrichum candidum Link = assay: Fungicidal activity, inhibition of mycelium growth on wort agar; format: cell-based
# Excerpt: (§1) Man prüfte die funguzide Aktivität von Zink-bis-(N-vi- nyloxyethyl)dithiocarbamat gegenüber den reinen Pilzkulturen: Gladosporium resinae, Cladosporium cladosporioides, Acremonium corvum, Acremonium charticola, Penicillium charlesii Smith, Walrotiela subiculesa, Geotrichum candidum Link, Oidium, Penicillium crysogenum. Die genannten Pilze wurden von den Oberflächen der Wände und Decken von Bierbrauereien und Werken für die Herstellung von alkoholfreien Getränken ausgeschieden.
# (§2) […] In eine der Petri-Schalen wurde Nährboden mit 1 ml Azeton (Kontrolle) gegossen.
# (§3) In 18 bis 20 Stunden nach dem Vergießen des Nährbodens in die Petri-Schalen führte man die Inokulation der reinen Pilzkultur durch, die vorher an einem Schräg-Würzeagar während 15 Tage gezüchtet wurden. Die Inkubation führte man bei einer Temperatur von 25 bis 27°C während 5 Tage durch. Danach wurde der Durchmesser der Pilzkolonien gemessen und der Prozentsatz der Hemmung des Wachstums des Myzeliums (S) nach der Abbott -Formel gezählt: [formula] worin dc Durchmesser der Pilzkolonien in Kontrolle ist, de =Durchmesser der Pilzkolonien in einer Schale mit dem Nährboden ist, der Zink-bis-(N-vinyloxyethyl)dithiocarbamat enthält.
# Acremonium corvum = assay: as above; format: cell-based
# Excerpt: as §1, §2, §3
# Acremonium charticola = assay: as above; format: cell-based
# Excerpt: as §1, §2, §3
# Penicillium chrysogenum = assay: as above; format: cell-based
# Excerpt: as §1, §2, §3
# [3] = tested on: Cladosporium cladosporioides; assay: as above; format: cell-based
# Excerpt: as §1, §2, §3
# Oidium = assay: as above; format: cell-based
# Excerpt: as §1, §2, §3
# Walrotiela subiculesa = assay: as above; format: cell-based
# Excerpt: as §1, §2, §3
# [4] = tested on: Penicillium charlesii Smith; assay: as above; format: cell-based
# Excerpt: as §1, §2, §3
# Cladosporium resinae = assay: as above; format: cell-based
# Excerpt: as §1, §2, §3
# [5] = Storage stability (qualitative); format: physicochemical; settings: result in words
# p. Escherichiae = assay: Bactericidal activity, growth on agar medium; format: cell-based; settings: 37°C, 5 Tage
# Method: (§4) Die bakterizide Aktivität des Kalium N-(vinyloxyethyl)-dithiocarbamats gegenüber den Bakterien, die von der Oberfläche von Wänden und Decken der Produktionsräume von Brauereien und Fabriken zur Herstellunq von alkoholfreien Getränken ausgeschieden wurden und die zu p.p.Bacillus, Micrococcus, Pseudomonas, Escherichiae gehören, wurde geprüft.
# (§5) Es wurden wäßrige Lösungen des genannten Stoffes verschiedener Konzentration hergestellt, die so berechnet wurde, daß bei Einführung von 1 ml der Lösung in 25 ml geschmolzenen agarisierten Nährboden (45-50°C) die Konzentration des Stoffes im Nährboden von 0,003 bis 0,5% betrug. In 18 bis 24 Stunden wurde auf die Oberfläche des Nährbodens 0,1 ml der wäßrigen Suspension der eintägigen reinen Bakterienkulturen aufgetragen, die am Fleisch-Pepton-Agar gezüchtet wurden. Die Suspension wurde gleichmäßig verteilt. In Kontrollschalen wurden 0,1 ml Wasser auf der Oberfläche des Närhbodens verteilt.
# (§6) Die Inkubation führte man bei einer Temperatur von 37°C während 5 Tage durch.
# (§7) Die effektive Wirkung des Stoffes wurde nach dem Auftreten des Bakterienwachstums an der Oberfläche des Nährbodens bewertet.
# p.Micrococcus = assay: Bactericidal activity, growth on agar medium; format: cell-based; settings: 37°C, 5 Tage
# Method: as §4, §5, §6, §7
# p.Bacillus = assay: Bactericidal activity, growth on agar medium; format: cell-based; settings: 37°C, 5 Tage
# Method: as §4, §5, §6, §7
# p.Pseudomonas = assay: Bactericidal activity, growth on agar medium; format: cell-based; settings: 37°C, 5 Tage
# Method: as §4, §5, §6, §7
# [6] = tested on: Schimmelpilzen, die die Bewachsung von Oberflächen hervorrufen; assay: Fungicidal activity, summary over all tested fungi; format: cell-based; settings: day 5
# Excerpt: as §1
# Es wurden Lösungen des Zink-bis-(N-vinyloxyethyl)di- thiocarbamats im Azeton verschiedener Konzentration hergestellt, die so berechnet wurde, daß bei der Einführung vor 1 ml Lösung in 10 ml des geschmolzenen Würzeagars (45-50°C) die Konzentration des genannten Stoffes im Medium von 0,0015 bis 0,012% betrug. In eine der Petri-Schalen wurde Nährboden mit 1 ml Azeton (Kontrolle) gegossen.
# as §3
# weißen Mäusen = assay: Acute toxicity in white mice
# [7] = Acute toxicity in white mice; settings: mouse, in vivo, ip
# [8] = Konzentration des Stoffes 0,1 % (0,10)
# [9] = Konzentration des Stoffes 0,05 %
# [10] = Konzentration des Stoffes 0,15 %
# [11] = Konzentration des Stoffes 0,0015 %
# [12] = Konzentration des Stoffes 0,003 %
# [13] = Konzentration des Stoffes 0,006 %
# [14] = Konzentration des Stoffes 0,012 %
molecule,measurement,setting,value
CCCCCCCCn1sccc1=O [2-n-Oktyl-4-isothiazolinon-3],effektive Konzentration als Biozid für Lack- und Farbstoffe,[1],"0,4 Masse%"
Kupfer-N-(vinyloxyethyl)dithiocarbamat,Löslichkeit im Alkohol,[2],teilweise löslich
same,Löslichkeit im Azeton,[2],teilweise löslich
same,Löslichkeit im Diethylether,[2],unlöslich
same,Löslichkeit im Dimethylsulfoxid,[2]; Dimethylsulfoxid,gut
same,Löslichkeit in Wasser,[2],unlöslich
same,"Hemmung des Myzeliums am 5. Tag des Wachstums, Geotrichum candidum Link",Geotrichum candidum Link; [8],50%
same,"Hemmung des Myzeliums am 5. Tag des Wachstums, Geotrichum candidum Link",Geotrichum candidum Link; [9],3%
same,"Hemmung des Myzeliums am 5. Tag des Wachstums, Geotrichum candidum Link",Geotrichum candidum Link; [10],100%
same,"Hemmung des Myzeliums am 5. Tag des Wachstums, Acremonium corvum",Acremonium corvum; [8],100%
same,"Hemmung des Myzeliums am 5. Tag des Wachstums, Acremonium corvum",Acremonium corvum; [9],50%
same,"Hemmung des Myzeliums am 5. Tag des Wachstums, Acremonium corvum",Acremonium corvum; [10],100%
same,"Hemmung des Myzeliums am 5. Tag des Wachstums, Acremonium charticola",Acremonium charticola; [8],100%
same,"Hemmung des Myzeliums am 5. Tag des Wachstums, Acremonium charticola",Acremonium charticola; [9],43%
same,"Hemmung des Myzeliums am 5. Tag des Wachstums, Acremonium charticola",Acremonium charticola; [10],100%
same,"Hemmung des Myzeliums am 5. Tag des Wachstums, Penicillium chrysogenum",Penicillium chrysogenum; [8],24%
same,"Hemmung des Myzeliums am 5. Tag des Wachstums, Penicillium chrysogenum",Penicillium chrysogenum; [9],4%
same,"Hemmung des Myzeliums am 5. Tag des Wachstums, Penicillium chrysogenum",Penicillium chrysogenum; [10],85%
same,"Hemmung des Myzeliums am 5. Tag des Wachstums, Cladosporium cladosporioides",[3]; [8],100%
same,"Hemmung des Myzeliums am 5. Tag des Wachstums, Cladosporium cladosporioides",[3]; [9],45%
same,"Hemmung des Myzeliums am 5. Tag des Wachstums, Cladosporium cladosporioides",[3]; [10],100%
same,"Hemmung des Myzeliums am 5. Tag des Wachstums, Oidium","Oidium; Konzentration des Stoffes 0,1 %",67%
same,"Hemmung des Myzeliums am 5. Tag des Wachstums, Oidium",Oidium; [9],0%
same,"Hemmung des Myzeliums am 5. Tag des Wachstums, Oidium",Oidium; [10],100%
same,"Hemmung des Myzeliums am 5. Tag des Wachstums, Walrotiela subiculesa",Walrotiela subiculesa; [8],100%
same,"Hemmung des Myzeliums am 5. Tag des Wachstums, Walrotiela subiculesa",Walrotiela subiculesa; [9],30%
same,"Hemmung des Myzeliums am 5. Tag des Wachstums, Walrotiela subiculesa",Walrotiela subiculesa; [10],100%
same,"Hemmung des Myzeliums am 5. Tag des Wachstums, Penicillium charlesii Smith",[4]; [8],56%
same,"Hemmung des Myzeliums am 5. Tag des Wachstums, Penicillium charlesii Smith",[4]; [9],24%
same,"Hemmung des Myzeliums am 5. Tag des Wachstums, Penicillium charlesii Smith",[4]; [10],92%
same,"Hemmung des Myzeliums am 5. Tag des Wachstums, Cladosporium resinae",Cladosporium resinae; [8],43%
same,"Hemmung des Myzeliums am 5. Tag des Wachstums, Cladosporium resinae",Cladosporium resinae; [9],34%
same,"Hemmung des Myzeliums am 5. Tag des Wachstums, Cladosporium resinae",Cladosporium resinae; [10],100%
same,Lagerbeständigkeit,[5],lagerbeständig
same,"Konzentration der Salze der N-(vinyloxyethyl)dithiocarbaminsäure (100%), die das Wachstum der Bakterien am 5. Tag des Wachstums hemmen, p. Escherichiae",p. Escherichiae,"0,25%"
same,"Konzentration der Salze der N-(vinyloxyethyl)dithiocarbaminsäure (100%), die das Wachstum der Bakterien am 5. Tag des Wachstums hemmen, p.Micrococcus",p.Micrococcus,"0,25%"
same,"Konzentration der Salze der N-(vinyloxyethyl)dithiocarbaminsäure (100%), die das Wachstum der Bakterien am 5. Tag des Wachstums hemmen, p.Bacillus",p.Bacillus,"0,25%"
same,"Konzentration der Salze der N-(vinyloxyethyl)dithiocarbaminsäure (100%), die das Wachstum der Bakterien am 5. Tag des Wachstums hemmen, p.Pseudomonas",p.Pseudomonas,"0,25%"
same,"Konzentration, bei der die Entwicklung aller untersuchten Pilze vollständig gehemmt wurde",[6],"0,15%"
same,LD50,weißen Mäusen; intraabdominale Einführung bei weißen Mäusen,267 mg/kg
C=COCCNC(=S)[S-].[Na+] [Natrium-N-(vinyloxyethyl)dithiocarbamat],Löslichkeit im Alkohol,[2],teilweise
same,Löslichkeit im Azeton,[2],teilweise
same,Löslichkeit im Diethylether,[2],unlöslich
same,Löslichkeit in Wasser,[2],gut löslich
same,"Hemmung des Myzeliums am 5. Tag des Wachstums, Geotrichum candidum Link",Geotrichum candidum Link; [11],5%
same,"Hemmung des Myzeliums am 5. Tag des Wachstums, Geotrichum candidum Link",Geotrichum candidum Link; [12],40%
same,"Hemmung des Myzeliums am 5. Tag des Wachstums, Geotrichum candidum Link",Geotrichum candidum Link; [13],75%
same,"Hemmung des Myzeliums am 5. Tag des Wachstums, Geotrichum candidum Link",Geotrichum candidum Link; [14],100%
same,"Hemmung des Myzeliums am 5. Tag des Wachstums, Acremonium corvum",Acremonium corvum; [11],100%
same,"Hemmung des Myzeliums am 5. Tag des Wachstums, Acremonium corvum",Acremonium corvum; [12],100%
same,"Hemmung des Myzeliums am 5. Tag des Wachstums, Acremonium corvum",Acremonium corvum; [13],100%
same,"Hemmung des Myzeliums am 5. Tag des Wachstums, Acremonium corvum",Acremonium corvum; [14],100%
same,"Hemmung des Myzeliums am 5. Tag des Wachstums, Acremonium charticola",Acremonium charticola; [11],100%
same,"Hemmung des Myzeliums am 5. Tag des Wachstums, Acremonium charticola",Acremonium charticola; [12],100%
same,"Hemmung des Myzeliums am 5. Tag des Wachstums, Acremonium charticola",Acremonium charticola; [13],100%
same,"Hemmung des Myzeliums am 5. Tag des Wachstums, Acremonium charticola",Acremonium charticola; [14],100%
same,"Hemmung des Myzeliums am 5. Tag des Wachstums, Penicillium chrysogenum",Penicillium chrysogenum; [11],5%
same,"Hemmung des Myzeliums am 5. Tag des Wachstums, Penicillium chrysogenum",Penicillium chrysogenum; [12],20%
same,"Hemmung des Myzeliums am 5. Tag des Wachstums, Penicillium chrysogenum",Penicillium chrysogenum; [13],80%
same,"Hemmung des Myzeliums am 5. Tag des Wachstums, Penicillium chrysogenum",Penicillium chrysogenum; [14],100%
same,"Hemmung des Myzeliums am 5. Tag des Wachstums, Cladosporium cladosporioides",[3]; [11],100%
same,"Hemmung des Myzeliums am 5. Tag des Wachstums, Cladosporium cladosporioides",[3]; [12],100%
same,"Hemmung des Myzeliums am 5. Tag des Wachstums, Cladosporium cladosporioides",[3]; [13],100%
same,"Hemmung des Myzeliums am 5. Tag des Wachstums, Cladosporium cladosporioides",[3]; [14],100%
same,"Hemmung des Myzeliums am 5. Tag des Wachstums, Oidium",Oidium; [11],60%
same,"Hemmung des Myzeliums am 5. Tag des Wachstums, Oidium",Oidium; [12],100%
same,"Hemmung des Myzeliums am 5. Tag des Wachstums, Oidium",Oidium; [13],100%
same,"Hemmung des Myzeliums am 5. Tag des Wachstums, Oidium",Oidium; [14],100%
same,"Hemmung des Myzeliums am 5. Tag des Wachstums, Walrotiela subiculesa",Walrotiela subiculesa; [11],100%
same,"Hemmung des Myzeliums am 5. Tag des Wachstums, Walrotiela subiculesa",Walrotiela subiculesa; [12],100%
same,"Hemmung des Myzeliums am 5. Tag des Wachstums, Walrotiela subiculesa",Walrotiela subiculesa; [13],100%
same,"Hemmung des Myzeliums am 5. Tag des Wachstums, Walrotiela subiculesa",Walrotiela subiculesa; [14],100%
same,"Hemmung des Myzeliums am 5. Tag des Wachstums, Penicillium charlesii Smith",[4]; [11],25%
same,"Hemmung des Myzeliums am 5. Tag des Wachstums, Penicillium charlesii Smith",[4]; [12],40%
same,"Hemmung des Myzeliums am 5. Tag des Wachstums, Penicillium charlesii Smith",[4]; [13],90%
same,"Hemmung des Myzeliums am 5. Tag des Wachstums, Penicillium charlesii Smith",[4]; [14],100%
same,"Hemmung des Myzeliums am 5. Tag des Wachstums, Cladosporium resinae",Cladosporium resinae; [11],100%
same,"Hemmung des Myzeliums am 5. Tag des Wachstums, Cladosporium resinae",Cladosporium resinae; [12],100%
same,"Hemmung des Myzeliums am 5. Tag des Wachstums, Cladosporium resinae",Cladosporium resinae; [13],100%
same,"Hemmung des Myzeliums am 5. Tag des Wachstums, Cladosporium resinae",Cladosporium resinae; [14],100%
same,Lagerbeständigkeit,[5],lagerbeständig
same,LD50,[7],260 mg/kg
same,Toxizität für Warmblüter,weißen Mäusen; result in words,wenig toxisch
